pIC50: −log10 of the molar value. Several values for one entry are separate records, joined by “and”; a condition that tells them apart may be missing. Equal entries are not always repeated. Where two headings read alike, the source gives them in different places.
Legend:
sodium channels = assay: [14C]-labelled guanidine flux through sodium channels; assay type: biochemical, rat; details: inhibition of flux of [14C]-labelled guanidine through sodium channels
optic nerve = assay: tissue or blood; assay type: cell-based; details: Rattus norvegicus; 30 μM of each drug; OGD 1 h; cGMP accumulation; compared with protection achieved by TTX; read-out: % protection accorded
optic nerve axons [1] = assay: Optic nerve pathology: axonal damage caused by the NO donor PAPA/NO; assay type: cell-based, rat
Protocol: Optic nerves were excised from adult Wistar rats (weighing 240-280 g) after decapitation. They comprised lengths of nerve (each about 9 mm long) running from immediately behind the eyeball to just in front of the optic chiasm. […] The flasks were held in a shaking water bath at 37° C.
(§1) After 1-2 h preincubation in aCSF, test nerves received the NO donor, PAPA/NO (1 mM) for 2 h or OGD was imposed by transferring the nerves for 1 h into aCSF lacking glucose and gassed with 5% CO2 in N2. Afterwards, the nerves were allowed a 90 min recovery period in aCSF. Putative protectant drugs were present from 15 min before until 15 min after the NO exposure or OGD.
After dehydration the tissues were embedded in Durcupan resin. Semithin (1 μm) sections were stained with either toluidine blue.
The data are expressed as mean number of axons greater than 2.5 μm in diameter per […] (±S.E.M.) in fields from 5-39 nerves.

optic nerve axons [2] = assay: Optic nerve pathology: axonal damage caused by oxygen- and glucose-deprivation (OGD); assay type: cell-based, rat; details: for Index of Axonopathy: mean ± S.E.M.; for Protection against axonal damage caused by OGD (in words): OGD-exposed rat optic nerve
Protocol: Optic nerves were excised from adult Wistar rats (weighing 240-280 g) after decapitation. They comprised lengths of nerve (each about 9 mm long) running from immediately behind the eyeball to just in front of the optic chiasm. The nerves were incubated in Erlenmeyer flasks (50 ml capacity) containing 20 ml of an artificial CSF (aCSF) solution composed of (mM): NaCl (120) KCl (2.0), CaCl2 (2.0), NaHCO3 (26), KH2PO4 (1.18), MgSO4 (1.19) and glucose (11), continuously gassed with 95% O2/5% CO2. The flasks were held in a shaking water bath at 37° C.
as §1
The nerves were then fixed for 2 h in a mixture of 4% paraformaldehyde and 2.5% glutaraldehyde in 0.1 M phosphate buffer (pH 7.4), and post-fixed with 1% osmium tetroxide for 1 h. After dehydration the tissues were embedded in Durcupan resin. Semithin (1 μm) sections were stained with either toluidine blue.
To quantify the extent of axonal pathology under the light microscope, the degree of distension of the axon profiles was measured using an image analysis system as described previously (Garthwaite et al., (1999), Neuroscience, 94, 1219-1230). The data are expressed as mean number of axons greater than 2.5 μm in diameter per […] (±S.E.M.) in fields from 5-39 nerves.

[3] = PAPA/NO-exposed rat optic nerve

COC(=O)c1nn(Cc2ccccc2)c2ccccc12
melting point: 72 to 73 °C

Cc1cccc(NC(=O)c2cc(C)n(Cc3c(Cl)cccc3Cl)n2)c1 [1-(2,6-Dichloro-benzyl)-5-methyl-1H-pyrazole-3-carboxylic acid m-tolylamide]
pIC50 (sodium channels): 5.15 | inhibition at 30 µM (optic nerve): 29%

Cc1cc(C(=O)Nc2ccc(C(C)(C)C)cc2)nn1C(C)(C)C [1-tert-Butyl-5-methyl-1H-pyrazole-3-carboxylic acid (4-tert-butyl-phenyl)-amide]
pIC50 (sodium channels): 5.22 | inhibition at 30 µM (optic nerve): 39%

CC(C)(C)c1cc(C(=O)NNC(=O)Nc2cccc(Cl)c2)n(Cc2ccccc2)n1 [2-Benzyl-5-tert-butyl-2H-pyrazole-3-carboxylic acid N′-(3-chlorophenylcarbamoyl) hydrazide]
pIC50 (sodium channels): 5.24 | inhibition at 30 µM (optic nerve): 12%

Cc1ccc(NC(=O)c2cc(C(C)(C)C)nn2Cc2ccccc2)cc1 [2-Benzyl-5-tert-butyl-2H-pyrazole-3-carboxylic acid p-tolylamide]
pIC50 (sodium channels): 5.70 | inhibition at 30 µM (optic nerve): 66%

Cn1c(SCC(=O)c2ccc(Cl)cc2)nnc1-c1cc(C(C)(C)C)nn1Cc1ccc(F)cc1 [2-{5-[5-tert-Butyl-2-(4-fluoro-benzyl)-2H-pyrazol-3-yl]-4-methyl-4H-[1,2,4]triazol-3-ylsulfanyl}-1-(4-chloro-phenyl)-ethanone]
pIC50 (sodium channels): 5.34 | inhibition at 30 µM (optic nerve): 19%

Cn1c(SCC(=O)c2ccccc2)nnc1-c1cc(C(C)(C)C)nn1Cc1ccc(F)cc1 [2-{5-[5-tert-Butyl-2-(4-fluoro-benzyl)-2H-pyrazol-3-yl]-4-methyl-4H-[1,2,4]triazol-3-ylsulfanyl}-1-phenyl-ethanone]
pIC50 (sodium channels): 4.71 | inhibition at 30 µM (optic nerve): 18%

Cn1c(SCc2ccccc2)nnc1-c1cc(C(C)(C)C)nn1Cc1ccc(F)cc1 [3-Benzylsulfanyl-5-[5-tert-butyl-2-(4-fluoro-benzyl)-2H-pyrazol-3-yl]-4-methyl-4H-[1,2,4]triazole]
pIC50 (sodium channels): 4.92 and 4.91 | inhibition at 30 µM (optic nerve): 72%

Cn1nc(C(C)(C)C)cc1C(=O)Nc1ccc(Cl)cc1 [5-tert-Butyl-2-methyl-2H-pyrazole-3-carboxylic acid (4-chloro-phenyl)-amide]
pIC50 (sodium channels): 5.22 | inhibition at 30 µM (optic nerve): 62%

CN1CCN(c2ncc(-c3cc(Cl)cc(Cl)c3Cl)c(N)n2)CC1 [BW619C89, reference compound]
Index of Axonopathy (optic nerve axons [1]; PAPA/NO (1 mM) + drug at 100 μM, mean ± S.E.M.): 26 ± 3 axons greater than 2.5 μm in diameter per 10^4 m^2 | Effect on axonal pathology caused by NO (in words) (optic nerve axons [1]; [3]): eliminated | Index of Axonopathy (optic nerve axons [2]; OGD 1 h + drug at 100 μM): 53 ± 5 axons greater than 2.5 μm in diameter per 10^4 m^2 | Protection against axonal damage caused by OGD (in words) (optic nerve axons [2]): able to protect to an equivalent degree

OCc1ccc(-c2nn(Cc3ccccc3)c3ccccc23)o1 [Example 4, 1-Benzyl-3-(5-hydroxymethyl-2-furyl)-1H-indazole]
pIC50 (sodium channels): 4.77 | Index of Axonopathy (optic nerve axons [1]; PAPA/NO (1 mM) + drug at 30 μM, mean ± S.E.M.): 24 ± 4 axons greater than 2.5 μm in diameter per 10^4 m^2 | Effect on axonal pathology caused by NO (in words) (optic nerve axons [1]; [3]): as effective as both these other agents | Index of Axonopathy (optic nerve axons [2]; OGD 1 h + drug, concentration not given): 72 ± 15 axons greater than 2.5 μm in diameter per 10^4 m^2 | Protection against axonal damage caused by OGD (in words) (optic nerve axons [2]): able to protect to an equivalent degree

Cn1nc(C(C)(C)C)cc1C(=O)Nc1ccc(C(C)(C)C)cc1 [Example 26, 5-tert-Butyl-2-methyl-2H-pyrazole-3-carboxylic acid (4-tert-butyl-phenyl)-amide]
pIC50 (sodium channels): > 5.05 | pIC50 (sodium channels; listed as 5-tert-Butyl-2-methyl-2H-pyrazole-3-carboxylic acid (4-tert-butyl-phenyl)-amide): 5.70 | inhibition at 30 µM (optic nerve): 18%

CC(C)(C)c1cc(C(=O)Nc2nc(-c3cccnc3)cs2)n(Cc2ccc(Cl)cc2Cl)n1 [Example 41, 5-tert-Butyl-2-(2,4-dichloro-benzyl)-2H-pyrazole-3-carboxylic acid (4-(pyridin-3-yl)thiazol-2-yl)-amide]
pIC50 (sodium channels): 4.85

CCn1nc(-c2cccs2)cc1C(=O)Nc1nc(-c2cccnc2)cs1 [Example 42, 2-Ethyl-5-thiophen-2-yl-2H-pyrazole-3-carboxylic acid (4-(pyridin-3-yl)thiazol-2-yl)-amide]
pIC50 (sodium channels): > 5.05

CC(=O)Nc1ccc(NC(=O)c2cc(C(C)(C)C)nn2Cc2ccccc2)cc1 [Example 43, 2-Benzyl-5-tert-butyl-2H-pyrazole-3-carboxylic acid (4-acetylamino-phenyl)-amide]
pIC50 (sodium channels): 4.80

Cn1nc(C(C)(C)C)cc1C(=O)Nc1nc(-c2cccnc2)cs1 [Example 44, 5-tert-Butyl-2-methyl-2H-pyrazole-3-carboxylic acid (4-(pyridin-3-yl)thiazol-2-yl)-amide]
pIC50 (sodium channels): > 5.05

COc1ccc(Cc2noc(NC(=O)c3cc(C(C)(C)C)nn3C)n2)cc1 [Example 45, 5-tert-Butyl-2-methyl-2H-pyrazole-3-carboxylic acid [3-(4-methoxy-benzyl)-[1,2,4]oxadiazol-5-yl]-amide]
pIC50 (sodium channels): 4.72

CCNCCCCc1nn(Cc2ccccc2)c2ccccc12 [Example 46, [N-Ethyl-(4-Aminobutyl)]-1-benzylindazole]
pIC50 (sodium channels): 4.81

CN(C)CCNC(=O)c1nn(Cc2ccccc2)c2ccccc12 [Example 47, 1-Benzyl-3-[N-(2-N,N-dimethylaminoethyl)carboxamido]indazole]
pIC50 (sodium channels): 4.20

O=C(O)c1n[nH]c2ccccc12 [Example 48, Indazole-3-carboxylic acid]
melting point: 261 to 263 °C (dec.)

NCc1noc(-c2nn(Cc3ccccc3)c3ccccc23)n1 [Example 51, 1-Benzyl-3-[3-aminomethyl-1,2,4-oxadiazol-yl]indazole]
pIC50 (sodium channels): 4.65

CN(C)Cc1noc(-c2nn(Cc3ccccc3)c3ccccc23)n1 [Example 52, 1-Benzyl-3-[3-(N,N-dimethylaminomethyl)-1,2,4oxadiazol-5-yl]indazole]
pIC50 (sodium channels): 4.47 | melting point: 93 to 95 °C

CCCN(CCCN)/[N+]([O-])=N/O [PAPA/NO]
Index of Axonopathy (optic nerve axons [1]; PAPA/NO (1 mM) for 2 h alone, no protectant, mean ± S.E.M.): 226 ± 22 axons greater than 2.5 μm in diameter per 10^4 m^2

NC1=N[C@H](O)[C@H]2[C@H]3O[C@]4(O)O[C@@H]([C@@H](O)[C@@]2(N1)[C@@H]4O)[C@]3(O)CO [Tetrodotoxin]
Effect on axonal pathology caused by NO (in words) (optic nerve axons [1]): eliminated | Index of Axonopathy (optic nerve axons [1]): 17 ± 4 axons greater than 2.5 μm in diameter per 10^4 m^2
